# Laboratory results reported in US20100204203A1, “Chemical Compounds 637: Pyridopyrimidinediones as PDE4 Inhibitors” (priority 2007, published 2010).
# Target: recombinant Human Phosphodiesterase B2 (PDE4B2) (Homo sapiens, UniProt Q07343)
# Assay: Human Phosphodiesterase B2 Radiometric Assay (yttrium silicate SPA beads, [3H]cyclic AMP)
# Format: biochemical
# Conditions: recombinant human PDE4B2, radiometric SPA assay, 8 nM [3H]cyclic AMP; read-out: PDE4B2 pIC50 (converted)
# How it was run: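 Compounds were preincubated 30 min at 30 °C with 0.1 mg/mL PDE4B2 in 50 mM HEPES pH 7.5, 8.3 mM MgCl2, 1.7 mM EGTA, 0.01% Brij 35. Then 8 nM [3H]cAMP was added for 20 min, stopped with yttrium silicate SPA beads plus 18 mM ZnSO4 capturing product 5′AMP; pIC50 by curve fitting.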
# recombinant Human Phosphodiesterase B2 (PDE4B2), sequence (Q07343 1-564 isoform Q07343-2): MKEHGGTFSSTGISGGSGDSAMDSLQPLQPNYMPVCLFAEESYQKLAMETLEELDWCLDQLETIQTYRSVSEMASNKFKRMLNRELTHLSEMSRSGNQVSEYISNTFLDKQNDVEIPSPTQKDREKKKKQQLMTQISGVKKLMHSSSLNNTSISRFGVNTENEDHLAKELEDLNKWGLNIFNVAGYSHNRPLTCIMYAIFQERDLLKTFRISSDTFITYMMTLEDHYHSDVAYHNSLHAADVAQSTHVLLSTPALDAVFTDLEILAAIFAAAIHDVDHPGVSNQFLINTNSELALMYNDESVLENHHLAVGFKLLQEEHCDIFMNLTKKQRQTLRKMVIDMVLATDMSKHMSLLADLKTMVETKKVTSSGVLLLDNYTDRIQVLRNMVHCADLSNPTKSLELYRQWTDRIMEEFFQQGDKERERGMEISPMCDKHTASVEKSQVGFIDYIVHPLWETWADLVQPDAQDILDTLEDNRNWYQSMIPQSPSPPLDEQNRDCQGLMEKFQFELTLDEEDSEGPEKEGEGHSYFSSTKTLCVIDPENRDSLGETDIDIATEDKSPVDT
row,SMILES,IC50 [nM]
1,"CCN(CC)Cc1ccc(-c2cccc(-n3c(=O)n([C@H]4CC[C@@H](NC(=O)C5(N(C)C)CC5)CC4)c(=O)c4cc(F)cnc43)c2)cc1 [Example 127, N-{cis-4-[1-{4′-[(diethylamino)methyl]biphenyl-3-yl}-6-fluoro-2,4-dioxo-1,4-dihydropyrido[2,3-d]pyrimidin-3(2H)-yl]cyclohexyl}-1-(dimethylamino)cyclopropanecarboxamide]",0.2
2,CC(C)NCCOc1ccc(-c2cccc(-n3c(=O)n([C@H]4CC[C@@H](NC(=O)c5cn6cc(F)ccc6n5)CC4)c(=O)c4cc(F)cnc43)c2)cc1 [Example 342],0.0316
3,"O=C1CCN(Cc2cc(O)ccc2-c2cccc(-n3c(=O)n([C@H]4CC[C@@H](NCc5cn6cc(F)ccc6n5)CC4)c(=O)c4cc(F)cnc43)c2)CCN1 [Example 375, 6-fluoro-3-(cis-4-{[(6-fluoroimidazo[1,2-a]pyridin-2-yl)methyl]amino}cyclohexyl)-1-{4′-hydroxy-2′-[(5-oxo-1,4-diazepan-1-yl)methyl]biphenyl-3-yl}pyrido[2,3-d]pyrimidine-2,4(1H,3H)-dione]",0.0126
4,"CN(C)[C@H]1CC[C@@H](n2c(=O)c3cc(F)cnc3n(-c3cccc(-c4ccccc4)c3)c2=O)CC1 [Example 66, 1-biphenyl-3-yl-3-[cis-4-(dimethylamino)cyclohexyl]-6-fluoropyrido[2,3-d]pyrimidine-2,4(1H,3H)-dione]",63.1
5,"O=C(N[C@H]1CC[C@@H](n2c(=O)c3cc(F)cnc3n(-c3cccc(-c4ccc(CCCN5CCNCC5)cc4)c3)c2=O)CC1)c1cn2cc(F)ccc2n1 [Example 97, 6-fluoro-N-{cis-4-[6-fluoro-2,4-dioxo-1-[4′-(3-piperazin-1-ylpropyl)biphenyl-3-yl]-1,4-dihydropyrido[2,3-d]pyrimidin-3(2H)-yl]cyclohexyl}imidazo[1,2-a]pyridine-2-carboxamide]",0.00631
6,"CN(C)C1(C(=O)N[C@H]2CC[C@@H](n3c(=O)c4cc(F)cnc4n(-c4cccc(-c5ccccc5)c4)c3=O)CC2)CC1 [Example 53, N-[cis-4-(1-biphenyl-3-yl-6-fluoro-2,4-dioxo-1,4-dihydropyrido[2,3-d]pyrimidin-3(2H)-yl)cyclohexyl]-1-(dimethylamino)cyclopropanecarboxamide]",0.0158
7,"COCCNCc1ccc(-c2cccc(-n3c(=O)n([C@H]4CC[C@@H](NC(=O)c5cc(C)n(C)n5)CC4)c(=O)c4cc(F)cnc43)c2)cc1 [Example 117, N-{cis-4-[6-fluoro-1-(4′-{[(2-methoxyethyl)amino]methyl}biphen-yl-3-yl)-2,4-dioxo-1,4-dihydropyrido[2,3-d]pyrimidin-3(2H)-yl]cyclohexyl}-1,5-dimethyl-1H-pyrazole-3-carboxamide]",0.126
8,"CCN(CC)CC(=O)N[C@H]1CC[C@@H](n2c(=O)c3cc(F)cnc3n(-c3cccc(-c4ccc(CN5CCN(C(C)C)CC5)cc4)c3)c2=O)CC1 [Example 241, N^2,N^2-diethyl-N-{cis-4-[6-fluoro-1-{4′-[(4-isopropylpiperazin-1-yl)methyl]biphenyl-3-yl}-2,4-dioxo-1,4-dihydro-pyrido[2,3-d]pyrimidin-3(2H)-yl]cyclohexyl} glycinamide]",0.0794
9,"O=C(N[C@H]1CC[C@@H](n2c(=O)c3cc(F)cnc3n(-c3cccc(-c4ccc(CN5CCCNCC5)cc4)c3)c2=O)CC1)c1cnc2ccccc2n1 [Example 352, N-{cis-4-[1-[4′-(1,4-diazepan-1-ylmethyl)biphenyl-3-yl]-6-fluoro-2,4-dioxo-1,4-dihydropyrido[2,3-d]pyrimidin-3(2H)-yl]cyclohexyl} quinoxaline-2-carboxamide]",0.0158
10,"N[C@H]1CC[C@@H](n2c(=O)c3cc(F)cnc3n(-c3cccc(C(=O)O)c3)c2=O)CC1 [Example 91, 3-[3-(cis-4-aminocyclohexyl)-6-fluoro-2,4-dioxo-3,4-dihydropyrido[2,3-d]pyrimidin-1(2H)-yl]benzoic acid]",7.94
11,"O=C(N[C@H]1CC[C@@H](n2c(=O)c3cc(F)cnc3n(-c3cccc(-c4ccc(CO)cc4)c3)c2=O)CC1)c1cn2cc(F)ccc2n1 [Example 25, 6-fluoro-N-{cis-4-[6-fluoro-1-[4′-(hydroxymethyl)biphenyl-3-yl]-2,4-dioxo-1,4-dihydropyrido[2,3-d]pyrimidin-3(2H)-yl]cyclohexyl}imidazo[1,2-a]pyridine-2-carboxamide.]",0.0251
12,"Cc1cc(C(=O)N[C@H]2CC[C@@H](n3c(=O)c4cc(F)cnc4n(-c4cccc(-c5ccc(CN6CCOCC6)cc5)c4)c3=O)CC2)nn1C [Example 108, N-{cis-4-[6-fluoro-1-[4′-(morpholin-4-ylmethyl)biphenyl-3-yl]-2,4-dioxo-1,4-dihydropyrido[2,3-d]pyrimidin-3(2H)-yl]cyclohexyl}-1,5-dimethyl-1H-pyrazole-3-carboxamide]",0.00794
13,"CN(C)CCCC(=O)N[C@H]1CC[C@@H](n2c(=O)c3cc(F)cnc3n(-c3cccc(-c4ccccc4)c3)c2=O)CC1 [Example 93, N-[cis-4-(1-biphenyl-3-yl-6-fluoro-2,4-dioxo-1,4-dihydropyrido[2,3-d]pyrimidin-3(2H)-yl)cyclohexyl]-4-(dimethylamino)butanamide]",5.01
14,"O=C(N[C@H]1CC[C@@H](n2c(=O)c3cc(F)cnc3n(-c3cccc(-c4ccccc4O)c3)c2=O)CC1)c1cn2cc(F)ccc2n1 [Example 26, 6-fluoro-N-{cis-4-[6-fluoro-1-(2′-hydroxybiphenyl-3-yl)-2,4-dioxo-1,4-dihydropyrido[2,3-d]pyrimidin-3(2H)-yl]cyclohexyl}imidazo[1,2-a]pyridine-2-carboxamide.]",0.0501
15,"O=C(N[C@H]1CC[C@@H](n2c(=O)c3cc(F)cnc3n(-c3cccc(C#Cc4cccnc4)c3)c2=O)CC1)c1cn2ccccc2n1 [Example 6, N-{cis-4-[6-fluoro-2,4-dioxo-1-[3-(pyridin-3-ylethynyl)phenyl]-1,4-dihydropyrido[2,3-d]pyrimidin-3(2H)-yl]cyclohexyl}imidazo[1,2-a]pyridine-2-carboxamide]",0.00794
16,"Cc1cc(C(=O)N[C@H]2CC[C@@H](n3c(=O)c4cc(F)cnc4n(-c4cccc(-c5ccc(CN6CCCCC6)cc5)c4)c3=O)CC2)nn1C [Example 112, N-{cis-4-[6-fluoro-2,4-dioxo-1-[4′-(piperidin-1-ylmethyl)biphenyl-3-yl]-1,4-dihydropyrido[2,3-d]pyrimidin-3(2H)-yl]cyclohexyl}-1,5-dimethyl-1H-pyrazole-3-carboxamide]",0.0501
17,"O=C(N[C@H]1CC[C@@H](n2c(=O)c3cc(F)cnc3n(-c3cccc(-c4ccccc4)c3)c2=O)CC1)c1cn2ccccc2n1 [Example 3, N-[cis-4-(1-biphenyl-3-yl-6-fluoro-2,4-dioxo-1,4-dihydropyrido[2,3-d]pyrimidin-3(2H)-yl)cyclohexyl]imidazo[1,2-a]pyridine-2-carboxamide]",0.0316
18,"Cc1cc(C(=O)N[C@H]2CC[C@@H](n3c(=O)c4cc(F)cnc4n(-c4cccc(-c5ccc(CN6CCNCC6)cc5)c4)c3=O)CC2)nn1C [Example 228, N-{cis-4-[6-fluoro-2,4-dioxo-1-[4′-(piperazin-1-ylmethyl)biphenyl-3-yl]-1,4-dihydropyrido[2,3-d]pyrimidin-3(2H)-yl]cyclohexyl}-1,5-dimethyl-1H-pyrazole-3-carboxamide]",0.0251
